Data from patent US9586900B2, “Pyrrolone or pyrrolidinone melanin concentrating hormone receptor-1 antagonists” (BRISTOL-MYERS SQUIBB COMPANY, priority 2012, dated 2017).

Each molecule was assayed against human melanin concentrating hormone receptor (MCHR1) (Homo sapiens (Human), UniProt Q99705, A5T/E4Q) (assay: Radioligand binding assay for assessment of MCHR1 activity). Details: Table A; membranes of HEK-293 cells expressing mutated (E4Q, A5T) hMCHR1; competition with [Phe13,[125I]Tyr19]-MCH.
Sequence of human melanin concentrating hormone receptor (MCHR1) (Q99705 whole entry E4Q/A5T): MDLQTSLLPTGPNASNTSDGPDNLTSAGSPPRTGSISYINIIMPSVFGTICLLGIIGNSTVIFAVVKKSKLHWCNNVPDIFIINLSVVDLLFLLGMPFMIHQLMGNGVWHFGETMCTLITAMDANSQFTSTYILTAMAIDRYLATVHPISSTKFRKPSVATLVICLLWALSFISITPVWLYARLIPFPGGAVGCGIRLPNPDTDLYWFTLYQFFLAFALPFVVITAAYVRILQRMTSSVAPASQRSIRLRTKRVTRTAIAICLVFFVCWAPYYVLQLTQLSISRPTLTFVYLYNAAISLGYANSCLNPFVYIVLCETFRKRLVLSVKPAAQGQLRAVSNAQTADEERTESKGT
Experimental: Radioligand Binding Assay for Assessment of MCHR1 Activity
An in vitro binding assay was used to determine the compound Ki value or ability to antagonize binding of a peptide agonist to the human melanin concentrating hormone receptor (MCHR1). […] Binding experiments were carried out with 0.5-1.0 μg of membrane protein incubated in a total of 0.2 mL in 25 mM HEPES (pH 7.4) with 10 mM MgCl2, 2 mM EGTA, and 0.1% BSA (Binding Buffer) for 90 min. For competition binding assays, reactions were carried out in the presence of with 0.06-0.1 nM [Phe^13, [^125I]Tyr^19]-MCH and increasing concentrations of unlabeled test molecules. […] Filters were dried, 0.05 mL MicroScint 20 was added to each well and radioactivity was subsequently quantified by scintillation counting on a TOPCOUNT® microplate scintillation counter (Packard). Inhibitory constants were determined by nonlinear least squares analysis using a four parameter logistic equation.
In the case of `COc1cc(N2CC[C@@H](Oc3ccc(C(F)(F)F)cc3)C2=O)ccc1OCC(C)(C)O` [Example 9, (R)-1-(4-(2-Hydroxy-2-methylpropoxy)-3-methoxyphenyl)-3-(4-(trifluoromethyl)phenoxy)pyrrolidin-2-one], the Ki is reported as 23 nM.
With `COc1cc(N2CC[C@H](Oc3ccc(C(F)(F)F)cc3)C2=O)ccc1OCC(C)(C)O` [Example 10, (S)-1-(4-(2-Hydroxy-2-methylpropoxy)-3-methoxyphenyl)-3-(4-(trifluoromethyl)phenoxy)pyrrolidin-2-one] the Ki was 6000 nM.

Same assay, conditions: Table C; membranes of HEK-293 cells expressing mutated (E4Q, A5T) hMCHR1; competition with [Phe13,[125I]Tyr19]-MCH
`Cc1cc(N2CCC(Oc3ccc(OC(F)(F)F)cc3)C2=O)ccc1OCC[S+](C)[O-]` (stereo not shown) [Example 101, 1-(3-Methyl-4-(2-(methylsulfinyl)ethoxy)phenyl)-3-(4-(trifluoromethoxy)phenoxy)pyrrolidin-2-one] showed a Ki of 77 nM.
With `Cc1cc(N2CC[C@@H](Oc3ccc(-c4ccccc4)cc3)C2=O)ccc1OCCS(C)(=O)=O` [Example 105, (R)-3-(Biphenyl-4-yloxy)-1-(3-methyl-4-(2-(methylsulfonyl)ethoxy)phenyl)pyrrolidin-2-one] the Ki was 2 nM.
Molecule `Cc1cc(N2CC[C@H](Oc3ccc(-c4ccccc4)cc3)C2=O)ccc1OCCS(C)(=O)=O` [Example 106, (S)-3-(Biphenyl-4-yloxy)-1-(3-methyl-4-(2-(methylsulfonyl)ethoxy)phenyl)pyrrolidin-2-one] has a Ki of 636 nM.
Molecule `Cc1cc(N2CCC(Oc3ccc(-c4ccccc4F)cc3)C2=O)ccc1OCCS(C)(=O)=O` (stereo not shown) [Example 107] has a Ki of 5 nM.
`Cc1cc(N2CCC(Oc3ccc(-c4ccncc4)cc3)C2=O)ccc1OCCS(C)(=O)=O` (stereo not shown) [Example 113, 1-(3-Methyl-4-(2-(methylsulfonyl)ethoxy)phenyl)-3-(4-(pyridin-4-yl)phenoxy)pyrrolidin-2-one] gave a Ki of 55 nM.
`Cc1cc(N2CCC(Oc3ccc(C4CC4)cc3)C2=O)ccc1OCCS(C)(=O)=O` (stereo not shown) [Example 114] showed a Ki of 7 nM.

Same assay, conditions: Table D; membranes of HEK-293 cells expressing mutated (E4Q, A5T) hMCHR1; competition with [Phe13,[125I]Tyr19]-MCH
For `COc1cc(N2CC=C(Oc3ccc(C4CC4)cc3)C2=O)ccc1OCC(C)(C)O` [Example 116, 3-(4-Cyclopropylphenoxy)-1-(4-(2-hydroxy-2-methylpropoxy)-3-methoxyphenyl)-1H-pyrrol-2(5H)-one], the Ki was 3 nM.
`COc1cc(N2CC=C(Oc3ccc(C4CC4)cc3)C2=O)ccc1O` [Example 120] was tested, and the Ki was 10 nM.
